{"source": "patent US11136432B2", "about": "“Method for producing polyisothianaphthene-based electroconductive polymer” (SHOWA DENKO K.K., priority 2016, dated 2021)", "key": {"[1]": {"test": "Solubility test: amount dissolved in 10 g of solvent, visually inspected", "assay_type": "physicochemical", "protocol": "Benzo[c]thiophene-1,3-dihydro-2-oxide was dissolved a little at a time in 10 g of a solvent, and the amount of dissolution was visually inspected.\n1,3-dihydroisothianaphthene was dissolved a little at a time in 10 g of a solvent."}, "[2]": {"test": "Stability test after dissolution: visual observation of the solution", "assay_type": "physicochemical", "conditions": "in the air", "protocol": "(§1) 1.0 g of benzo[c]thiophene-1,3-dihydro-2-oxide and 0.25 g of p-toluenesulfonic acid-hydrate (pTSA, molar ratio: 5/1) were dissolved in 11.0 g of each solvent (solid content: 10 mass %) in composition as shown in Table 3 in the air. The solution was visually observed immediately (early period), 24 hours, and one week after the dissolution.\nas §1, with “1,3-dihydroisothianaphthene” for “benzo[c]thiophene-1,3-dihydro-2-oxide”, “0.28” for “0.25”, “11.3” for “11.0”, “4” for “3”\nA part of the prepared aqueous solution was delivered by drops onto a glass plate, followed by heating and drying at 120° C. for 1 hour. The generated solid was black. The generation of polyisothianaphthene was confirmed from the measurement of the UV spectrum obtained by adding the product to water.\nA part of the prepared solution was delivered by drops onto a glass plate, followed by heating and drying at 120° C. for 1 hour. The generated solid was black. The generation of polyisothianaphthene was confirmed from the measurement of the UV spectrum obtained by adding the product to water."}, "[3]": {"conditions": "4° C., DMSO, pTSA (molar ratio 5/1), solid content 10 mass %"}, "[4]": {"conditions": "25° C., DMSO, pTSA (molar ratio 5/1), solid content 10 mass %"}, "[5]": {"conditions": "25° C., EtOH, pTSA (molar ratio 5/1), solid content 10 mass %"}, "[6]": {"conditions": "25° C., solvent None, catalyst None"}}}
{"compound": "c1ccc2c(c1)CSC2", "note": "[Comparative Example 1, 1,3-dihydroisothianaphthene]", "values": [{"measurement": "Dissolution amount", "setting": "[1]; solvent: Dimethyl formamide", "value": "Soluble"}, {"measurement": "Dissolution amount", "setting": "[1]; solvent: Dimethyl sulfoxide", "value": "Soluble"}, {"measurement": "Dissolution amount", "setting": "[1]; solvent: Ethanol", "value": "Soluble"}, {"measurement": "Dissolution amount", "setting": "[1]; solvent: Ethylene glycol", "value": "Insoluble"}, {"measurement": "Dissolution amount", "setting": "[1]; solvent: Isopropanol", "value": "Soluble"}, {"measurement": "Dissolution amount", "setting": "[1]; solvent: Methanol", "value": "Slightly soluble"}, {"measurement": "Dissolution amount", "setting": "[1]; solvent: Water", "value": "Insoluble"}, {"measurement": "Visual observation After 1 week", "setting": "[2]; [3]", "value": "Pale yellow"}, {"measurement": "Visual observation After 24 hours", "setting": "[2]; [3]", "value": "Pale yellow"}, {"measurement": "Visual observation After 1 week", "setting": "[2]; [4]", "value": "Deep blue"}, {"measurement": "Visual observation After 24 hours", "setting": "[2]; [4]", "value": "Pale brown"}, {"measurement": "Visual observation After 1 week", "setting": "[2]; [5]", "value": "Deep blue"}, {"measurement": "Visual observation After 24 hours", "setting": "[2]; [5]", "value": "Brownish red"}, {"measurement": "Visual observation After 1 week", "setting": "[2]; [6]", "value": "Pale brown"}, {"measurement": "Visual observation After 24 hours", "setting": "[2]; [6]", "value": "Pale yellow"}]}
{"compound": "[O-][S+]1Cc2ccccc2C1", "note": "[Example 1, benzo[c]thiophene-1,3-dihydro-2-oxide]", "values": [{"measurement": "Dissolution amount", "setting": "[1]; solvent: Dimethyl formamide", "value": "Soluble"}, {"measurement": "Dissolution amount", "setting": "[1]; solvent: Dimethyl sulfoxide", "value": "Soluble"}, {"measurement": "Dissolution amount", "setting": "[1]; solvent: Ethanol", "value": "Soluble"}, {"measurement": "Dissolution amount", "setting": "[1]; solvent: Ethylene glycol", "value": "Soluble"}, {"measurement": "Dissolution amount", "setting": "[1]; solvent: Isopropanol", "value": "Soluble"}, {"measurement": "Dissolution amount", "setting": "[1]; solvent: Methanol", "value": "Soluble"}, {"measurement": "Dissolution amount", "setting": "[1]; solvent: Water", "value": "Soluble"}]}
